Experimental findings from patent publication US11654195B2, “Eco-friendly smart photosensitizer and photo-stem cell therapy product comprising same” (priority 2019, dated 2023) are described below.

This test has as its system HeLa cells. Put plainly: Confirmation of location of nanosphere in cells (confocal microscope). The format is cell-based. Particulars: HeLa cells 1×10^5, 1.25 μg/ml. The protocol: In order to observe cancer cell targeting of nanospheres of the biocompatible material sample in which the hydroxypropyl methylcellulose of Example 1 was bonded to porfimer sodium by an ester bond, that is, the accumulation location and accumulation rate in cancer cells, HeLa cells (1×10^5 cells) were treated with each of 1.25 μg/ml of the nanospheres of the biocompatible material sample in which the hydroxypropyl methylcellulose prepared in Example 1 was bonded to porfimer sodium by an ester bond and 1.25 μg/ml of unmodified porfimer sodium as a control and then the location in cells over time was observed using a confocal microscope.

As for “porfimer sodium [unmodified porfimer sodium]”, the “location in cells over time” value is recorded as “located at different sites in cells”.
